Measurements as given in publication PMC4819177, “The rational search for selective anticancer derivatives of the peptide Trichogin GA IV: a multi-technique biophysical approach” (Scientific Reports, 2016).
Entries after “also recorded” stand apart in the source; their conditions may differ. Square brackets hold non-standard residues; d marks the D form. Peptide text beside a SMILES is read from it. * marks the point of attachment. TOAC = CC1(C)CC(N)(C(=O)O)CC(C)(C)N1[O]; Leu(ol) = CC(C)C[C@H](N)CO; Octanoyl = CCCCCCCC(=O)*; Api = NC1(C(=O)O)CCNCC1; Aib = CC(C)(N)C(=O)O

How the values were obtained:
[1] = system: human dermal fibroblasts (HDF); assay type: cell-based; conditions: MTT, 24 h exposure; average error about ±2 μM
Method: (§1) We studied the effect of TG and its analogues on normal (HDF) and transformed (T67 and HeLa) cells. The cellular viability was assessed after 24 hours of exposure to the peptides by the MTT assay (Table 1).
(§2) Culture media, foetal bovine serum (FBS) and antibiotics were purchased from Carlo Erba Dasit Group. The T67 human glioma cell line was derived by Lauro et al.[49] from a World Health Organization (WHO) Grade III gemistocytic astrocytoma. Human dermal fibroblasts (HDF) were obtained by ATCC. HDF were cultured in Fibroblast Basal Medium (ATCC) supplemented with 10% FBS. T67 and HeLa cells were cultured in Dulbecco’s modified Eagle’s medium (MMedical) supplemented with 10% FBS, 100 UI/ml penicillin, 100 μg/ml streptomycin, and 40 μg/ml gentamycin, and kept in a 5% CO2 atmosphere at 37 °C, with saturating humidity. Cell viability and number were measured by trypan blue exclusion method.
(§3) Cytotoxicity of peptides was estimated using a MTT assay. All the chemicals used for this assay have been purchased by sigma Aldrich and used without further purification. T67, HeLa and HDF cells were seeded in 24-well plates at 1 × 10^5 cells/well. Experiments were performed after 24 h of incubation at 37 °C in 5% CO2. After this time cells were washed and treated for 24 h with different concentrations of peptides; the cells are then incubated for 60 mins with 300 μM of MTT in culture medium. The absorbance of each well was measured at 450 nm with a spectrofluorometer (Wallac Victor multilabel counter; Perkin-Elmer Inc., Boston, MA, USA). Data are reported as the mean ± standard deviation of at least three independent experiments.

[2] = system: T67 human glioma cell line; assay type: cell-based; conditions: MTT, 24 h exposure; average error about ±2 μM
Method: as §1, §2, §3

[3] = system: HeLa cells; assay type: cell-based, human; conditions: MTT, 24 h exposure; average error about ±2 μM
Method: as §1, §2, §3

[4] = system: T67, HeLa and HDF cells; experiment: MTT cytotoxicity assay, summary over the three cell lines; assay type: cell-based, human; conditions: 24 h
Method: as §1, §3

[5] = Dynamic light scattering of POPC SUV with peptides; assay type: physicochemical; conditions: POPC SUV 2 mM, P:L 1:100
Method: The dimension of the SUV prepared by sonication was verified by dynamic light scattering (DLS). Additionally we checked if the peptides at a P:L ratio 1:100, the ratio used for EPR experiments, alter the dimension of the SUV. The experiments were perfomed on POPC SUV (2 mM) with and without peptides. We chose a toxic peptide, [Arg^2] TG, and a non-toxic peptide, [Leu^4] TG. The average diameter of the SUV in this preparation is about 21±6 nm (when counting the size distribution by numer).

[6] = system: HeLa cells; experiment: Fluorescence microscopy of FITC-labelled peptides; assay type: cell-based, human; conditions: 0.5 μM, 3 hours; for state of the cells / membrane lysis: bright field; for cellular localization of the fluorescent label: green fluorescence
Method: HeLa cells were treated for 3 hours with 0.5 μM of TG and [Lys^6] […] The cells treated with [FITC^11] […] Conversely, treatment with [Lys^6, FITC^11] […] It has been shown that some AMP act not on the plasma membrane, but on the mitochondria.
HeLa cells were washed with PBS (NaCl 137 mM, KCl 2.7 mM, Na2HPO4 10 mM, KH2PO4 1.8 mM, pH 7.4), detached with 0.05% trypsin–EDTA solution and centrifuged for 3 min at 300 × g. The pellet was resuspended in DMEM medium and cells were counted by using trypan blue exclusion method. Then, 5 × 10^3 cells were seeded on custom chambers[58] with glass bottom, in 100 μL of complete DMEM medium and incubated at 37 °C in a humidified atmosphere with 5% CO2. After 24 h, cells were washed with PBS and incubated for 3 hours with […] of [FITC^11] TG and [Lys^6, FITC^11] TG dissolved in DMEM. After this time, cells were carefully washed with PBS, then 50 μL of PBS supplemented with calcium and magnesium (NaCl 137 mM, KCl 2.7 mM, Na2HPO4 10 mM, KH2PO4 1.8 mM, CaCl2 1 mM, MgCl2 0.5 mM, pH 7.4) was added to each chamber. Finally, chambers were mounted on the microscope stage for analysis. Micrographs were acquired on a Zeiss Axiovert 200 inverted microscope equipped with XBO xenon 75 W short arc lamp and a Photometrics Coolsnap FX CCD camera (Roper Scientific) with Metafluor Imaging Software version 6.1r6 (Universal Imaging Inc.) at λexc = 500 nm, λem = 545 nm.
We performed fluorescence microscopy experiments with rhodamine, which selectively stains mitochondria, to exclude that TG analogs penetrate inside the mitochondria and are localized only on the plasmatic membrane. Rhodamine staining is shown in FigureS5.B in red. The merged images of the experiments on [FITC^11]

Compound	EC50 [1] [µM]	EC50 [2] [µM]	EC50 [3] [µM]	further results
CCCCCCCC(=O)NC(C)(C)C(=O)NCC(=O)N[C@@H](CC(C)C)C(=O)NC(C)(C)C(=O)NCC(=O)NCC(=O)N[C@@H](CC(C)C)C(=O)NC(C)(C)C(=O)NCC(=O)N[C@H](C(=O)N[C@H](CO)CC(C)C)[C@@H](C)CC [TG, 1-Oct-Aib-Gly-Leu-Aib-Gly-Gly-Leu-Aib-Gly-Ile-Lol, reference compound] (Octanoyl-[Aib]GL[Aib]GGL[Aib]GI[Leu(ol)])	4	2	8	–
CCCCCCCC(=O)NC(C)(C)C(=O)NCC(=O)N[C@@H](CC(C)C)C(=O)NC(C)(C)C(=O)NCC(=O)NCC(=O)N[C@@H](CC(C)C)C(=O)NC1(C(=O)NCC(=O)N[C@H](C(=O)N[C@H](CO)CC(C)C)[C@@H](C)CC)CCNCC1 [[Api^8] TG, Oct-UGLUGGLZGI-Lol] (Octanoyl-[Aib]GL[Aib]GGL[Api]GI[Leu(ol)])	> 20	–	> 20	cytotoxicity / selectivity in words [4]: selective cytotoxicity towards a cancer cell line
CCCCCCCC(=O)NC(C)(C)C(=O)N[C@@H](CCCNC(=N)N)C(=O)N[C@@H](CC(C)C)C(=O)NC(C)(C)C(=O)NCC(=O)NCC(=O)N[C@@H](CC(C)C)C(=O)NC(C)(C)C(=O)NCC(=O)N[C@H](C(=O)N[C@H](CO)CC(C)C)[C@@H](C)CC [[Arg^2] TG, Oct-URLUGGLUGI-Lol] (Octanoyl-[Aib]RL[Aib]GGL[Aib]GI[Leu(ol)])	8	8	4	DLS Distribution by Number Peak 1, diameter [5]: 24 nm; DLS Distribution by Number Peak 1, fraction [5]: 100%; DLS Distribution by Volume Peak 1, diameter [5]: 28 nm; DLS Distribution by Volume Peak 1, fraction [5]: 92%; DLS Distribution by Volume Peak 2, diameter [5]: 5430 nm; DLS Distribution by Volume Peak 2, fraction [5]: 3%; DLS Distribution by Volume Peak 3, diameter [5]: 135 nm; DLS Distribution by Volume Peak 3, fraction [5]: 5%; effect of peptide on the dimension of the vesicles [5]: does not alter the dimension of the vesicles in a significant way
CCCCCCCC(=O)NC(C)(C)C(=O)NCC(=O)N[C@@H](CC(C)C)C(=O)NC(C)(C)C(=O)NCC(=O)N[C@@H](CCCCN)C(=O)N[C@@H](CC(C)C)C(=O)NC(C)(C)C(=O)NCC(=O)N[C@H](C(=O)N[C@H](CO)CC(C)C)[C@@H](C)CC [[Lys^6] TG, Oct-UGLUGKLUGI-Lol]	2	4	2	–
CCCCCCCC(=O)NC1(C(=O)N[C@@H](CCCNC(=N)N)C(=O)N[C@@H](CC(C)C)C(=O)NC(C)(C)C(=O)NCC(=O)NCC(=O)N[C@@H](CC(C)C)C(=O)NC(C)(C)C(=O)NCC(=O)N[C@H](C(=O)N[C@H](CO)CC(C)C)[C@@H](C)CC)CC(C)(C)N([O])C(C)(C)C1 [[TOAC^1, Arg^2] TG, Oct-XRLUGGLUGI-Lol] (Octanoyl-[TOAC]RL[Aib]GGL[Aib]GI[Leu(ol)])	15	8	9	–
CCCCCCCC(=O)NC1(C(=O)NCC(=O)N[C@@H](CC(C)C)C(=O)NC(C)(C)C(=O)NCC(=O)NCC(=O)N[C@@H](CC(C)C)C(=O)NC(C)(C)C(=O)N[C@@H](CCCNC(=N)N)C(=O)N[C@H](C(=O)N[C@H](CO)CC(C)C)[C@@H](C)CC)CC(C)(C)N([O])C(C)(C)C1 [[TOAC^1, Arg^9] TG, Oct-XGLUGGLURI-Lol] (Octanoyl-[TOAC]GL[Aib]GGL[Aib]RI[Leu(ol)])	8	8	5	–
CCCCCCCC(=O)NC1(C(=O)NCC(=O)N[C@@H](CC(C)C)C(=O)N[C@@H](CC(C)C)C(=O)NCC(=O)NCC(=O)N[C@@H](CC(C)C)C(=O)NC(C)(C)C(=O)NCC(=O)N[C@H](C(=O)N[C@H](CO)CC(C)C)[C@@H](C)CC)CC(C)(C)N([O])C(C)(C)C1 [[TOAC^1, Leu^4] TG, Oct-XGLLGGLUGI-Lol] (Octanoyl-[TOAC]GLLGGL[Aib]GI[Leu(ol)])	–	–	–	cytotoxicity / selectivity in words [4]: no toxicity
CCCCCCCC(=O)NC1(C(=O)NCC(=O)N[C@@H](CC(C)C)C(=O)NC(C)(C)C(=O)N[C@@H](CCCCN)C(=O)N[C@@H](CCCCN)C(=O)N[C@@H](CC(C)C)C(=O)NC(C)(C)C(=O)NCC(=O)N[C@H](C(=O)N[C@H](CO)CC(C)C)[C@@H](C)CC)CC(C)(C)N([O])C(C)(C)C1 [[TOAC^1, Lys^5,6] TG, Oct-XGLUKKLUGI-Lol]	15	10	6	–
CCCCCCCC(=O)NC1(C(=O)NCC(=O)N[C@@H](CC(C)C)C(=O)NC(C)(C)C(=O)NCC(=O)N[C@@H](CCCCN)C(=O)N[C@@H](CC(C)C)C(=O)NC(C)(C)C(=O)NCC(=O)N[C@H](C(=O)N[C@H](CO)CC(C)C)[C@@H](C)CC)CC(C)(C)N([O])C(C)(C)C1 [[TOAC^1, Lys^6] TG, Oct-XGLUGKLUGI-Lol]	5	1	3	cytotoxicity / selectivity in words [4]: most toxic peptide on all the cell lines
Oct-UGLLGGLUGI-Lol [[Leu^4] TG]	> 20	> 20	> 20	DLS Distribution by Number Peak 1, diameter [5]: 20 nm; DLS Distribution by Number Peak 1, fraction [5]: 100%; DLS Distribution by Volume Peak 1, diameter [5]: 30 nm; DLS Distribution by Volume Peak 1, fraction [5]: 96%; DLS Distribution by Volume Peak 2, diameter [5]: 4993 nm; DLS Distribution by Volume Peak 2, fraction [5]: 4%; effect of peptide on the dimension of the vesicles [5]: does not alter the dimension of the vesicles in a significant way
Oct-UGLUGGLUGIL-FITC [[FITC^11] TG]	–	–	–	state of the cells / membrane lysis [6]: keeps the cells intact; also recorded: largely intact; cellular localization of the fluorescent label [6]: mainly located in the outer plasma membrane; colocalization with rhodamine (mitochondria) ([6]; rhodamine staining): no significant colocalization
Oct-UGLUGKLUGIL- FITC [[Lys^6, FITC^11] TG]	–	–	–	state of the cells / membrane lysis [6]: severe membrane lysis; cellular localization of the fluorescent label [6]: mainly located in the outer plasma membrane
Oct-XGLUGGLLGI-Lol [[TOAC^1, Leu^8] TG]	> 20	> 20	> 20	–
